The data set deals with Jurkat cells. The data set can be described thus: Cell cytotoxicity assay (assay r). It counts as cell-based, human. As to conditions: 24 hours. The protocol: 1×10^5 Jurkat cells (immortalised human T lymphocytes) are added to the appropriate number of wells of a 96 well plate in 100 μL of media (RPMI supplemented with 10% foetal bovine serum). 1 μL of DMSO control (final concentration 1.0% v/v) or test compound (final concentration 20, 5 or 1 μg/mL) is added to the wells and incubated at 37° C., 5% CO2. After 24 hours, the plate is centrifuged at 1200 rpm for 3 minutes and the supernatant discarded. Cells are then resuspended in 150 μL (final concentration 7.5 μg/mL) of propidium iodide (PI) in PBS and incubated at 37° C., 5% CO2 for 15 minutes. After 15 minutes, cells are analysed by flow cytometry (BD accuri) using the FL3 window. The % viability is calculated as the % of cells that are PI negative in the test wells normalised to the DMSO control.

This is an account of results in patent US10392346B2, “Kinase inhibitors” (Topivert Pharma Limited, priority 2014, dated 2019).

As for `COc1cc(Nc2cc(Oc3ccc(NC(=O)Nc4cc(C(C)(C)C)cc(NS(C)(=O)=O)c4OC)c4ccccc34)ccn2)ccc1C(=O)NC[C@@H]1O[C@H](CO)[C@@H](O)[C@H](O)[C@H]1O` [17(co), 4-((4-((4-(3-(5-(tert-Butyl)-2-methoxy-3-(methylsulfonamido)phenyl)ureido)naphthalen-1-yl)oxy)pyridin-2-yl)amino)-2-methoxy-N-(((2S,3R,4R,5S,6R)-3,4,5-trihydroxy-6-(hydroxymethyl)tetrahydro-2H-pyran-2-yl)methyl)benzamide], the “% Viability at 1 μg/mL” value amounted to 74.3%.
